Test results: patent US20090156477A1, “Compositions and Methods for Regulating Inflammatory Responses” (Massachusetts Institute of Technology, priority 2005, published 2009)

B1: FGF7: Recombinant human FGF7 from Sigma (protein, UniProt P21781 32-194, looked up)
Fibroblast growth factor 7: CNDMTPEQMATNVNCSSPERHTRSYDYMEGGDIRVRRLFCRTQWYLRIDKRGKVKGTQEMKNNYNIMEIRTVAVGIVAIKGVESEFYLAMNKEGKLYAKKECNEDCNFKELILENHYNTYASAKWTHNGGEMFVALNQKGIPVRGKKTKKEQKTAHFLPMAIT

How the values were obtained:
Caco-2 cells = experiment: Transepithelial resistance (TER) of Caco-2 monolayers; type: cell-based, human; settings: for inhibited TER increases: 100 ng/ml ligand, three days (72 hours) after addition, percent reduction in TER compared to PBS treated cells; for time after treatment at which reductions in TER were evident: Caco-2 monolayers, TER followed over 48 hours; for reduced resistance on day 5: ligand added on day 0 and day 2, compared to untreated cells
Protocol: Caco-2 cells were grown close to confluence, and T84 cells were grown to confluence. The apical chambers of transwell plates with 6.5 mm diameter and 3 μm pore size filters were pretreated with 50 μl of 45 μg/ml collagen IV in 60% ethanol 24 hours prior to plating and incubated overnight at room temperature. After reaching confluence, cells were washed with 20 ml PBS and treated with 3.5 ml trypsin-EDTA per 175 cm^2 flask for 20-60 min at 37° C. until cells detached. Cells were resuspended in 16.5 ml media appropriate to the cell type. Each apical chamber was supplemented with 82 μl cell solution. The basolateral chamber was filled with 1 ml propagation media. Filters were fed with new media every two days over the course of experiments.
Caco-2 and T84 cells were allowed to grow on transwells to form monolayers. Monolayer formation was examined every other day by light microscopy as well as by transepithelial resistance (TER) measurements using an EVOM ohmmeter (World Precision Instruments, Sarasota, Fla.). After monolayer formation, cells were treated with 100 ng/ml FGF1, 100 ng/ml FGF2, 100 ng/ml FGF7 or an equivalent volume (10 μl) of PBS. TER measurements were made either after 72 hours or at each of the 30 minutes, 1 hour, 2 hours, 4 hours, 9 hours, 24 hours and 48 hours timepoints. To determine the effects of multiple additions of ligand, FGFs or PBS were added initially and again after 2 days, and TER measurements were made after 0, 2 and 5 days.
To probe the mechanism by which various FGFs induced cell mediated effects, various media treatments were employed. Ammonium tetrathiomolybdate (TM) was added 24 hours prior to the addition of ligands to yield a final concentration of 200 μM, sufficient to prevent the release of FGF1 [3]. Similarly, sodium chlorate, which reduces cell HSPGs and the sulfation of associated HSGAGs, was added 24 hours prior to the addition of ligands to yield a final concentration of 50 mM [33,34]. Antibodies and kinase inhibitors were added immediately prior to ligands. Antibodies to FGF1, FGFR1 and FGFR3 were added at a 1:100 dilution. Kinase inhibitors were added to yield final concentrations of 50 μM LY294002, 20 μM PD98059, 1 μM SB203580. All experiments were performed in triplicate.
Caco-2 cells were grown to just prior to confluency. The apical chambers of transwell plates with 6.5 mm diameter and 3 μm pore size filters were pretreated with 50 μl of 45 μg/ml mouse recombinant collagen IV (BD Biosciences, Bedford, Mass.) in 60% ethanol 24 hours prior to plating. Plates were incubated overnight at room temperature. Just prior to confluency, cells were washed with 20 ml phosphate buffered saline (PBS) and treated with 3.5 ml trypsin-EDTA per 175 cm^2 flask for 20-60 min at 37° C., until cells detached. Cells were resuspended in 16.5 ml media appropriate to the cell type. Each apical chamber was supplemented with 82 μl cell solution. The basolateral chamber was filled with 1 ml propagation media. Filters were fed with new media every two days over the course of experiments.
Caco-2 cells were allowed to grow on transwells to form monolayers. Monolayer formation was examined every other day by light microscopy as well as by TER measurements using an EVOM ohmmeter (World Precision Instruments, Sarasota, Fla.). After monolayer formation, cells were treated with 100 ng/ml recombinant human FGF1 (Amgen, Thousand Oaks, Calif.), 100 ng/ml recombinant human FGF2 [1], 100 ng/ml recombinant human FGF7 (Sigma, St. Louis, Mo.), or an equivalent volume (10 μl) of PBS. TER measurements were made after each of 30 minutes, 1 hour, 2 hours, 4 hours, 9 hours, 24 hours and 48 hours.
To probe the mechanism by which various FGFs induced cellular mediated effects, various media treatments were employed. TM was added 24 hours prior to the addition of ligands to yield a final concentration of 200 μM, sufficient to prevent the release of FGF1 [3]. […]

syndecan-1 = experiment: Immunohistochemistry for syndecan-1 in Caco-2 cells; type: cell-based, human; settings: for syndecan-1 localization, one hour after treatment: 1 hour; for syndecan-1 distribution after 24 hours: compared to FGF1 treated cells
Protocol: Caco-2 cells were grown to just prior to confluency on collagen IV coated glass slides. Cells were treated with PBS, FGF1, FGF2 and FGF7, and were incubated at 37° C. in a 5% CO2 humidified incubator for 1 hour, 4 hours, 24 hours or 48 hours, as noted. Cells were washed with PBS, fixed with 3.7% formalin for 10 minutes and washed again with PBS. Cells were treated with 0.1% Triton x-100 for 5 minutes to extract lipids. Cells were washed with PBS and preincubated with PBS supplemented with 1% bovine serum albumin. Primary antibodies were added for 4 hours at room temperature, and cells were washed with PBS. Primary antibodies used were as follows: rabbit anti-human ZO-1 (1:160; Zymed Laboratories, San Francisco, Calif.); mouse anti-human syndecan-1 (1:300; Santa Cruz Biotechnology); goat anti-human Fz-1 (1:125; Santa Cruz Biotechnology); rabbit anti-human caveolin-1 (1:250; Santa Cruz Biotechnology); goat anti-human glypican-1 (1:100; Santa Cruz Biotechnology); mouse anti-human E-cadherin (1:250; Zymed Laboratories); rabbit anti-human β-catenin (1:125; Cell Signaling Technology, Beverly, Mass.); and rabbit anti-human phospho-β-catenin (Ser33/37/Thr41; 1:125; Cell Signaling Technology, Beverly, Mass.).
Cells were then treated with secondary antibodies, Texas Red-labeled phalloidin (Molecular Probes, Eugene, Oreg.) or FLAER-FL1 (1:400; Protox Biotech, Victoria, BC, Canada) as appropriate for 1 hour in the dark at room temperature. Secondary antibodies used were as follows: FITC-labeled chicken anti-rabbit (for ZO-1; 1:100; Molecular Probes, Eugene, Oreg.); Texas Red-labeled goat-anti mouse (for syndecan-1; 1:400; Molecular Probes); FITC-labeled donkey anti-mouse (for syndecan-1; 1:400; Molecular Probes, Eugene, Oreg.); FITC-labeled rabbit anti-mouse (for syndecan-1 and E-cadherin; 1:500; Molecular Probes, Eugene, Oreg.); Texas Red-labeled rabbit anti-goat (for Fz-1; 1:200; Jackson ImmunoResearch Laboratories, West Grove, Pa.); Texas Red-labeled goat anti-rabbit (for caveolin-1, β-catenin and phospho-β-catenin; 1:500; Molecular Probes); and Texas Red-labeled donkey anti-goat (for glypican-1; 1:80; Research Diagnostics, Flanders, N.J.).
Cells, except those stained with phalloidin, were washed with PBS and stained with diamidino-2-phenylindole (DAPI) for 5 minutes at room temperature (Molecular Probes). Controls of no antibody, primary antibody only, and secondary antibody only were performed. Cells were examined by confocal microscopy (ZO-1 and phalloidin only), or by fluorescence microscopy. A Nikon HB10101AF fluorescence microscope was used and images were captured at room temperature using a Hitachi HVC20 camera and Scion image acquisition software. Images were processed using Adobe Photoshop 7.0 and Adobe Illustrator 10.0.

| Molecule | inhibited TER increases (Caco-2 cells; Caco-2 cells) [%] | reduced TER at 48 hours (Caco-2 cells; Caco-2 cells, 100 ng/ml, 48 hours) [%] | effect of added agent on FGF-induced reduction in TER (Caco-2 cells; Caco-2 cells, agent given before or with 100 ng/ml FGFs (TM 200 μM, sodium chlorate 50 mM, LY294002 50 μM, PMA 100 ng/ml, antibodies 1:100)) | reduction of TER in TM treated cells (Caco-2 cells; Caco-2 monolayers pretreated with 200 μM TM, all time points beginning at 4 hours) | reduction of TER with the addition of heparin (Caco-2 cells; Caco-2 monolayers pretreated with 50 mM sodium chlorate, heparin 500 ng/ml with ligands, vs PBS) | time after treatment at which reductions in TER were evident (Caco-2 cells; 100 ng/ml) [h] | syndecan-1 localization, one hour after treatment (syndecan-1) | reduced resistance on day 5 (Caco-2 cells; Caco-2 cells) [%] | syndecan-1 distribution after 24 hours (syndecan-1) |
| --- | --- | --- | --- | --- | --- | --- | --- | --- | --- |
| FGF1: Recombinant human FGF1 from Amgen | 35.1±12.3 | 45.1±5.2 | restored the ability of FGF2 and FGF7 to reduce TER | still elicited significant reductions in TER | reduced TER compared to PBS | 2 | seen to a lesser amount |  |  |
| FGF2: Recombinant human FGF2, produced as described | 67.2±25.8 |  |  |  |  | 4 | primarily localized around the nucleus | 43.6±11.1 | moderately enhanced cytoplasmic and membrane-associated distribution of syndecan-1 |
| B1 | 61.4±17.3 |  |  |  |  | 4 | primarily localized around the nucleus | 44.4±8.7 | moderately enhanced cytoplasmic and membrane-associated distribution of syndecan-1 |
